The text below walks through data of patent publication US10358454B2, “Marinopyrrole derivatives and methods of making and using same” (H. LEE MOFFITT CANCER CENTER AND RESEARCH INSTITUTE, INC., priority 2014, dated 2019).

Entries after “also recorded” stand apart in the source; their conditions may differ. Like-named read-outs stand apart in the source and are kept apart here.

Data set [1] deals with human breast cancer MDA-MB-468 cells. Briefly: Western blotting of MDA-MB-468 cells treated with marinopyrrole derivatives (Mcl-1, Bim, caspase 3). In kind it is cell-based. The note with it: 10 μM for 16 h. How it is done:
The cells were then processed for western blotting according to a previously described methods (Balasis M E et al. Clin. Cancer Res. 2011, 17, 2852-2862). […] However, none of the cyclic marinopyrroles were active in intact cells.
(§1) ELISAs were performed using a modified version of a previously described procedure (Doi K et al. J. Biol. Chem. 2012, 287, 10224-10235). Briefly, 40 nM of biotinylated Bim BH3 peptide (Biomatik) in SuperBlock blocking buffer (Pierce) was incubated in high-binding capacity streptavidin-coated plates (Pierce) for 2 h. Compounds were diluted in 120 μl of PBS containing 10 nM of GST-Mcl-1 or GST-Bcl-xL in 1.5 mL tubes for 15 min. Wells were washed with wash buffer (PBS containing 0.05% Tween-20) and then 100 μL of the compound/GST-protein mixture was transferred to the wells. The plates were incubated for 2 h, and then the wells were washed with wash buffer. HRP-conjugated anti-GST antibody (Bethyl Laboratories) was diluted 1:2000 in SuperBlock and 100 μL was transferred to each well. The plate was incubated for 1 h, and then the wells were washed with wash buffer followed by PBS. 100 μL of SureBlue TMB Microwell Peroxidase Substrate (VWR) was added to each well and plates were developed for 5-10 min. 100 μL of 1 N HCl was added to each well to stop the reaction and absorbance was read at 450 nm using a μQuant plate reader (Bio-Tek).
On the technique in general: Immunoblotting shows a protein as a band on a membrane.

Data set [2] relates to cultured human cancer cells. Briefly: Induction of apoptosis in cultured human cancer cells. In kind it is cell-based. The note with it: intact cell studies.
A further data set deals with Mcl-1/Bim (Homo sapiens, UniProt Q07820). Briefly: Mcl-1/Bim ELISA (GST-Mcl-1 binding to biotinylated Bim BH3 peptide). The note with it: for selectivity profile Mcl-1 vs Bcl-xL in words: from Mcl-1/Bim and Bcl-xL/Bim ELISA; for selectivity for Mcl-1 over Bcl-xL (Mcl-1/Bim over Bcl-xL/Bim): ratio of ELISA IC50 values. Here is the method:
as §1
(§2) ELISAs were performed using a similar procedure as previously described (Doi K, et al. J. Biol. Chem. 2012, 287, 10224-10235). Briefly, 40 nM of biotinylated Bim BH3 peptide (Biomatik) in SuperBlock blocking buffer (Pierce) was incubated in high-binding capacity streptavidin-coated plates (Pierce) for 2 h. Compounds were diluted in 120 μl of PBS containing 10 nM of GST-Mcl-1 or GST-Bcl-xL in 1.5 mL tubes for 15 min. Wells were washed with wash buffer (PBS containing 0.05% Tween-20) and then 100 μL of the compound/GST-protein mixture was transferred to the wells. The plates were incubated for 2 h, and then wells were washed with wash buffer. HRP-conjugated anti-GST antibody (Bethyl Laboratories) was diluted 1:2000 in SuperBlock and 100 μL was transferred to each well. The plate was incubated for 1 h, and then wells were washed with wash buffer followed by PBS. 100 μL of SureBlue TMB Microwell Peroxidase Substrate (VWR) was added to each well and plates were developed for 5-10 min. 100 μL of 1 N HCl was added to each well to stop the reaction and absorbance was read at 450 nm using μQuant plate reader (Bio-Tek).
(In general: An ELISA detects its analyte on a solid surface through an enzyme-linked reagent.)

Another data set has as its target Bcl-xL/Bim (Homo sapiens, UniProt Q07817). Briefly: Bcl-xL/Bim ELISA (GST-Bcl-xL binding to biotinylated Bim BH3 peptide). How it is done: as §1, §2
In data set [3] the target is T1, Mcl-1 (Homo sapiens, UniProt Q07820). Briefly: 15N-HSQC NMR chemical shift perturbation with docking. The arrangement: MBP (cleaved yes); made in house; host or cells: E. coli BL21(DE3) Codon+. In kind it is binding. The note with it: HSQC chemical shift changes, listed as II-4. Here is the method: ^15N-HSQC spectra were recorded on ^15N-labelled Mcl-1 at 0.1 mM prepared in 50 mM potassium phosphate solution at pH 6.5, 50 mM NaCl and 1 mM DTT. Titrations up to 100 μM of 1-21 and 1-18 compounds were performed. NMR spectra were acquired at 25° C. on an Inova 600 MHz spectrometer equipped with a cryoprobe and analyzed in CCPNMR (Vranken W F, et al. Proteins. 2005, 59, 687-696).
NMR-guided docking of 1-21 into the X-ray crystal structure of Mcl-1 (PDB ID: 3KJ0) was performed using Glide (Maestro, Schrodinger) (Friesner R A et al. J. Med. Chem. 2004, 47, 1739-1749; Friesner R A, et al. J. Med. Chem. 2006, 49, 6177-6196; Halgren T A, et al. J. Med. Chem. 2004, 47, 1750-1759; Gavathiotis E, et al. Nat. Chem. Biol. 2012, 8, 639-645). The lowest-energy docking pose is consistent with the observed NMR-chemical shift perturbation data. Pymol is used for preparing the highlighted poses.
Structural characterization of I-20 and II-4 was performed using NMR. HSQC spectra were collected at different ratios of compound:Mcl-1. […] The residues that undergo chemical shift changes upon compounds' binding onto the structure of Mcl-1 and the compounds' binding location were mapped (FIG. 6B). An induced fit molecular docking approach guided by the NMR chemical shifts was used to determine the structural models of the compounds bound to Mcl-1 using Glide software (Schrodinger; FIG. 6C). […]
Target sequence in this assay (Q07820 172-327): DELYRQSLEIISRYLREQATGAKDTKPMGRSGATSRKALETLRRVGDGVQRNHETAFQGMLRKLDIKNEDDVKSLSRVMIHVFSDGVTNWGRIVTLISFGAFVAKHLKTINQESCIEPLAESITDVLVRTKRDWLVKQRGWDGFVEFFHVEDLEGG

Data set [4] deals with T1, Mcl-1. Briefly: Fluorescence-quenching (FQ) assay based on intrinsic Trp fluorescence of Mcl-1. In kind it is binding. From the text: To investigate direct binding of compounds to Mcl-1, a fluorescence-quenching (FQ) assay based on the intrinsic Trp fluorescence of Mcl-1 was established.
Target sequence in this assay (Q07820 whole entry): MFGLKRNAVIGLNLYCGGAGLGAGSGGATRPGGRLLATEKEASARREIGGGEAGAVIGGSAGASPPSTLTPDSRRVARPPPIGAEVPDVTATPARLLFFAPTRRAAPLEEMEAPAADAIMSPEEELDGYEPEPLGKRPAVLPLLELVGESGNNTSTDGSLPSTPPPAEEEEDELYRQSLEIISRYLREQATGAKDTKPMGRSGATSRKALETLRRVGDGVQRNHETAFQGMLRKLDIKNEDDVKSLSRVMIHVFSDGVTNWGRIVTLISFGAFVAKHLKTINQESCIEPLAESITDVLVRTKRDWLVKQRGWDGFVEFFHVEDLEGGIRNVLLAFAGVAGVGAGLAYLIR
The nature of another data set: Solubility. The note with it: aqueous solubility.
The mark [5] stands for this setting: Table 2-B, n ≥ 3, read-out: Mcl-1/Bim IC50 (average ± SEM).
The mark [6] stands for this setting: Table 3-A structure I, Mcl-1 at 10 nM, n ≥ 3, read-out: Mcl-1-Bim IC50 (average ± SEM).
Setting [7] is: read-out: IC50 to inhibit the binding of Mcl-1 to Bim.
Where [8] appears, read: Table 3-A structure I, Bcl-xL at 10 nM, n ≥ 3, read-out: Bcl-xL-Bim IC50 (average ± SEM).
Setting [9] is: read-out: IC50 to inhibit Bcl-xL/Bim binding.

Chain of Bcl-xL/Bim (Q07817 whole entry): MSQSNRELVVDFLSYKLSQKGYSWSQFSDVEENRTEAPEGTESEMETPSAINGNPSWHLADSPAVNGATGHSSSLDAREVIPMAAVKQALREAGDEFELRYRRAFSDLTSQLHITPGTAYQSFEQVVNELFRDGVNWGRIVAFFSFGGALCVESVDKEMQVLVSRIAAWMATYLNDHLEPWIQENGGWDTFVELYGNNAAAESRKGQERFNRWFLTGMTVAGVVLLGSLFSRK
Chain of Mcl-1/Bim (Q07820 whole entry): as the sequence (Q07820 whole entry) above

Take `O=C(c1ccccc1O)c1[nH]c(Cl)c(Cl)c1-n1c(C(=O)c2ccccc2O)cc(Cl)c1Cl` (single isomer, unassigned) [(−)-1, reference compound]: in data set [1], the “effect on levels of Mcl-1 and Bim and cleavage of caspase 3” value (from here on “effect on levels”) is “able to decrease Mcl-1 and Bim and to cleave caspas 3”.

Take `C=Cc1ccc(C(=O)c2[nH]c(Cl)c(Cl)c2-n2c(C(=O)c3ccc(C=C)cc3O)cc(Cl)c2Cl)c(O)c1` [Compound 1-4, (4,4′,5,5′-Tetrachloro-1′H-1,3′-bipyrrole-2,2′-diyl)bis((2-hydroxy-4-vinylphenyl)methanone)]: the induction of apoptosis result in data set [2] is “induced apoptosis”. The “selectivity profile Mcl-1 vs Bcl-xL in words” value on Mcl-1/Bim is “dual Mcl-1 and Bcl-XL antagonists”.

Regarding `CCc1ccc(C(=O)c2[nH]c(Cl)c(Cl)c2-n2c(C(=O)c3ccc(CC)cc3O)cc(Cl)c2Cl)c(O)c1` [Compound 1-5, (4,4′,5,5′-Tetrachloro-1′H-1,3′-bipyrrole-2,2′-diyl)bis((4-ethyl-2-hydroxyphenyl)methanone)], in data set [2], the induction of apoptosis entry was “induced apoptosis”. The IC50 was 2.1 ± 0.5 µM at Mcl-1/Bim (setting [5]); 2.1 ± 0.5 µM at Mcl-1/Bim (setting [6]); 2.1 µM at Mcl-1/Bim (setting [7]); 3.9 ± 1.2 µM at Bcl-xL/Bim (Table 2-B, n ≥ 3 unless specified, read-out: Bcl-xL/Bim IC50 (average ± SEM)); 3.9 ± 1.3 µM on Bcl-xL/Bim (setting [8]). The “selectivity profile Mcl-1 vs Bcl-xL in words” value at Mcl-1/Bim was “dual Mcl-1 and Bcl-XL antagonists”.

What is called Kd is the free concentration of one partner at which half of the binding sites on the other are occupied at equilibrium, for simple one-to-one binding. Turning to `O=C(O)Cn1cc(-c2cc(O)c(C(=O)c3[nH]c(Cl)c(Cl)c3-n3c(C(=O)c4cc(Cl)c(-c5cn(CC(=O)O)nn5)cc4O)cc(Cl)c3Cl)cc2Cl)nn1` [Compound 1-19, 2,2′-(4,4′-((4,4′,5,5′-Tetrachloro-1′H-1,3′-bipyrrole-2,2′-dicarbonyl)bis(2-chloro-5-hydroxy-4,1-phenylene))bis(1H-1,2,3-triazole-4,1-diyl))diacetic acid], on Mcl-1 [3], the “binding to Mcl-1 by NMR” value was “binding to the BH3 pocket of Mcl-1; also recorded: confirmed binding to Mcl-1”. In addition, the IC50 at Mcl-1/Bim (Table 2-A, n ≥ 3, read-out: Mcl-1/Bim IC50 (average ± SEM)) is 5.2 ± 0.8 µM; at Mcl-1/Bim (Table 3-B structure II, n ≥ 3, read-out: Mcl-1-Bim IC50 (average ± SEM)), 5.2 ± 0.8 µM; at Mcl-1/Bim (setting [7]), 5.2 µM; at Bcl-xL/Bim (Table 2-A, n ≥ 3, read-out: Bcl-xL/Bim IC50 (average ± SEM)), greater than 50 µM; at Bcl-xL/Bim (Table 3-B structure II, n ≥ 3, read-out: Bcl-xL-Bim IC50 (average ± SEM)), greater than 50 µM. The “selectivity for Mcl-1 over Bcl-xL (Mcl-1/Bim over Bcl-xL/Bim)” value on Mcl-1/Bim amounted to 9.6 fold. Moreover, the “direct binding to Mcl-1 by fluorescence quenching” value at Mcl-1 [4] is “directly bind to Mcl-1”. Besides, the Kd on Mcl-1 [4] (binding isotherms, read-out: Kd (binding constant)) is 2.5 µM. Also, the “activity against Bcl-xL/Bim in words” value at Bcl-xL/Bim is listed as “not active”.

As for `COC(=O)c1ccc(C(=O)c2[nH]c(Cl)c(Cl)c2-n2c(C(=O)c3ccc(C(=O)OC)cc3O)cc(Cl)c2Cl)c(O)c1` [Compound I-17, Dimethyl-4,4′-(4,4′,5,5′-tetrachloro-1′H-[1,3′-bipyrrole]-2,2′-dicarbonyl)bis(3-hydroxybenzoate)], in data set [1], the “effect on levels” value was “significant decrease in the levels of Mcl-1 and Bim, and cleavage of caspase 3”. Besides, the “activity against Mcl-1/Bim in words” value at Mcl-1/Bim is “showed activity”. Further, the values for the IC50 at Mcl-1/Bim (setting [6]), on Bcl-xL/Bim (setting [8]) and at Bcl-xL/Bim (setting [9]) were 16.9 ± 2.3 µM, greater than 100 µM and greater than 100 µM, respectively.

As for `O=C(O)c1ccc(C(=O)c2[nH]c(Cl)c(Cl)c2-n2c(C(=O)c3ccc(C(=O)O)cc3O)cc(Cl)c2Cl)c(O)c1` [Compound I-18, 4,4′-(4,4′,5,5′-Tetrachloro-1′H-[1,3′-bipyrrole]-2,2′-dicarbonyl)bis(3-hydroxybenzoic acid)], in data set [1], the “effect on levels” value is “did not decrease Mcl-1 and Bim, and resulted in little caspase 3 cleavage”. In addition, the IC50 at Mcl-1/Bim (setting [6]) is 61.4 ± 7.6 µM; at Bcl-xL/Bim (setting [8]) it was greater than 100 µM. The “activity against Mcl-1/Bim in words” value at Mcl-1/Bim (listed as 7a) is recorded as “lower activity than 1; also recorded: less active”. In the data set “Solubility”, the solubility in words result is “improvement in aqueous solubility”. At Bcl-xL/Bim (listed as 7a), the “activity against Bcl-xL/Bim in words” value was “little activity; also recorded: less active”.

Regarding `CCOP(=O)(OCC)c1ccc(C(=O)c2[nH]c(Cl)c(Cl)c2-n2c(C(=O)c3ccc(P(=O)(OCC)OCC)cc3O)cc(Cl)c2Cl)c(O)c1` [Compound I-19, tetraethyl((4,4′,5,5′-tetrachloro-1′H-[1,3′-bipyrrole]-2,2′-dicarbonyl)bis(3-hydroxy-4,1-phenylene))bis(phosphonate)], the “effect on levels” value in data set [1] is recorded as “little effect on Mcl-1, Bim or caspase 3”. The IC50 on Mcl-1/Bim (read-out: Mcl-1-Bim IC50 (average ± SEM)) was 7.7 ± 2.2 µM; on Bcl-xL/Bim (setting [8]), greater than 100 µM; on Bcl-xL/Bim (setting [9]) it was greater than 100 µM.

Regarding `O=C1c2ccc(P(=O)(O)O)cc2Oc2c(Cl)cc(C(=O)c3ccc(P(=O)(O)O)cc3O)n2-c2c1[nH]c(Cl)c2Cl` [IV-6, 3-Hydroxy-4-(2,3,7-trichloro-13-oxo-10-phosphoryl-1,13-dihydrobenzo[g]dipyrrolo[2,1-b:3′,2′-d][1,3]oxazocine-5-carbonyl) phosphonic acid], the IC50 on Mcl-1/Bim (Table 1, Mcl-1 at 10 nM, n ≥ 3, read-out: Mcl-1-Bim IC50 (average ± SEM)) was greater than 100 µM; at Mcl-1/Bim (setting [7]), greater than 100 µM; on Bcl-xL/Bim (Table 1, Bcl-xL at 10 nM, n ≥ 3, read-out: Bcl-xL-Bim IC50 (average ± SEM)) it was greater than 100 µM; at Bcl-xL/Bim (setting [9]), greater than 100 µM.

Consider `COc1ccccc1C(=O)c1c(-n2c(C(=O)c3ccccc3OC)cc(Cl)c2Cl)c(Cl)c(Cl)n1C` [VI-11], for which, in data set [2], the induction of apoptosis entry was “induced apoptosis”. Besides, on Mcl-1/Bim, the “selectivity for Mcl-1 over Bcl-xL (Mcl-1/Bim over Bcl-xL/Bim)” value was 4.2 fold.

As for `Cn1c(Cl)c(Cl)c(-n2c(C(=O)c3ccccc3O)cc(Cl)c2Cl)c1C(=O)c1ccccc1O` [VI-12], in data set [2], the induction of apoptosis entry was “induced apoptosis”. In addition, the IC50 was greater than 100 µM at Mcl-1/Bim (setting [5]); greater than 100 µM at Mcl-1/Bim (Table 3-E structure VI, n ≥ 3, read-out: Mcl-1-Bim IC50 (average ± SEM)); greater than 100 µM on Mcl-1/Bim (setting [7]); 7.1 µM on Bcl-xL/Bim (setting [9]). The “selectivity for Bcl-xL over Mcl-1” value on Bcl-xL/Bim (ratio of ELISA IC50 values) was 12.7 fold.
